These results are taken from patent US10604535B2, “Compounds, compositions and methods” (Denali Therapeutics Inc., priority 2016, dated 2020).

Read-outs that look alike come from different tables or passages of the source.

The test system of data set [1] is human cryopreserved hepatocytes. Nature of the data set: Metabolic stability (hepatocytes). To be noted: human cryopreserved hepatocytes.
Description: The metabolic stability of compounds was evaluated in human cryopreserved hepatocytes (BioreclamationlVT, NY, USA) in duplicate. Test articles (or controls) were added to a 24-well incubation plate (Becton Dickinson Labware, USA) containing 0.5×10^6 hepatocytes/mL in suspension. The plate was held at 37° C. and agitated with constant orbital shaking (orbital speed at 350 rpm). At each time point (0, 5, 10, 15, 20, 30, 45, 60, 90, 120, 150 and 180 min) a Tecan Evo robot aspirated 50 μL of the incubation mixture and 100 μL of acetonitrile containing internal standard to quench the reaction. […] Samples were centrifuged (3000 rpm for 10 minutes) and the plate sealed prior to injection onto an LC-MS/MS system.
The appropriate parent/daughter ions were monitored for the test article and IS with the LC-MS/MS system. The intrinsic clearance (Clint; expressed μL/min/million cells) was determined from the first order elimination constant (k, min^−1) of test article decay and the volume of the incubation. […] The intrinsic organ CL was then converted to the hepatic clearance (CLhep) using the well-stirred model as shown below, where Qh is human hepatic blood flow.
Hepatic clearance is expressed as mL/min/kg. The hepatic clearance relates to the flow of blood through the liver that is completely cleared of the compound.
The target of the next data set is GST-hRIPK1 (8-327) (Homo sapiens (Human), UniProt Q13546). Description: Fluorescent Polarization Binding (FP Binding) assay.
Data set [2] deals with FADD-deficient Jurkat cells. Description: Cellular necroptosis assay (human TNFα-induced necrosis, CellTiter-Glo). To be noted: 48 h, TNFα 10 ng/mL, read-out: Cell IC50. The data set is classed as cell-based. (ATP-based viability assays read luminescence as a measure of living cells.)

Chain of GST-hRIPK1 (8-327) (Q13546 8-327): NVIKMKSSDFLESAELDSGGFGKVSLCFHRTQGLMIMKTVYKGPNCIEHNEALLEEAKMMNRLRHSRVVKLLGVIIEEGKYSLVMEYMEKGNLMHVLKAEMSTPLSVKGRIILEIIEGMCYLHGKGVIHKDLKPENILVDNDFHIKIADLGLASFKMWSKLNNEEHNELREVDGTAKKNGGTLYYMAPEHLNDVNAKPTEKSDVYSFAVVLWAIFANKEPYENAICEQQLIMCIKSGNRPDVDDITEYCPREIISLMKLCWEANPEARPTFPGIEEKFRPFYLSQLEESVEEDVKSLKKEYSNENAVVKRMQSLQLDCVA

In the case of `CN1C(=O)[C@@H](NC(=O)c2cc(C3(c4ccccc4)CC3)on2)COc2cccnc21` [Example 77, (S)—N-(5-methyl-4-oxo-2,3,4,5-tetrahydropyrido[3,2-b][1,4]oxazepin-3-yl)-5-(1-phenylcyclopropyl)isoxazole-3-carboxamide], the “Human hepatocyte CLhep Avg” value in data set [1] worked out at 19 mL/min/kg.

At GST-hRIPK1 (8-327), `[2H]C([2H])([2H])N1C(=O)[C@@H](NC(=O)c2nn(Cc3ccccc3)cc2F)[C@@H](C)Oc2ncccc21` [Example 205, 1-benzyl-N-((3S,4R)-1-trideuteriomethyl-4-methyl-2-oxo-1,2,3,4-tetrahydropyrido[2,3-b][1,4]oxazepin-3-yl)-4-fluoro-1H-pyrazole-3-carboxamide] showed an IC50 of 0.1 to 1000 nM. Also, the “Human hepatocyte CLhep Avg” value in data set [1] is 11 mL/min/kg.

In turn, `CN1C(=O)[C@@H](NC(=O)c2cc(Cc3ccccc3)on2)COc2cccnc21` [Example 142, (S)-5-Benzyl-N-(5-methyl-4-oxo-2,3,4,5-tetrahydropyrido[3,2-b][1,4]oxazepin-3-yl)isoxazole-3-carboxamide] registered an IC50 on GST-hRIPK1 (8-327) of 0.1 to 1000 nM. Moreover, the “Human hepatocyte CLhep Avg” value in data set [1] was determined as 16 mL/min/kg.

Take `CN1C(=O)[C@@H](NC(=O)c2cc(Cc3ccccc3)on2)[C@H]2C[C@H]2c2nccnc21` [Example 197, 5-benzyl-N-((7S,7aS,8aR)-5-methyl-6-oxo-5,6,7,7a,8,8a-hexahydrocyclopropa[d]pyrazino[2,3-b]azepin-7-yl)isoxazole-3-carboxamide]: at GST-hRIPK1 (8-327), the IC50 lay in the range of 0.1 to 1000 nM. In addition, in data set [1], the “Human hepatocyte CLhep Avg” value was found to be 13 mL/min/kg.

With `CN1C(=O)[C@@H](NC(=O)c2nnc(Cc3ccccc3)s2)[C@H]2C[C@H]2c2nccnc21` [Example 198, 5-benzyl-N-((7S,7aS,8aR)-5-methyl-6-oxo-5,6,7,7a,8,8a-hexahydrocyclopropa[d]pyrazino[2,3-b]azepin-7-yl)-1,3,4-thiadiazole-2-carboxamide], the IC50 at GST-hRIPK1 (8-327) was 0.1 to 1000 nM. In data set [1], the “Human hepatocyte CLhep Avg” value came to 8.5 mL/min/kg.

On to `CN1C(=O)[C@@H](NC(=O)c2cn(Cc3ccccc3)nn2)[C@H]2C[C@H]2c2nccnc21` [Example 195, 1-benzyl-N-((7S,7aS,8aR)-5-methyl-6-oxo-5,6,7,7a,8,8a-hexahydrocyclopropa[d]pyrazino[2,3-b]azepin-7-yl)-1H-1,2,3-triazole-4-carboxamide], for which the IC50 at GST-hRIPK1 (8-327) is 0.1 to 1000 nM. In data set [1], the “Human hepatocyte CLhep Avg” value came out at 7.1 mL/min/kg.

For the compound `CN1C(=O)[C@@H](NC(=O)c2nnc(Cc3cccc(C#N)c3)[nH]2)COc2cccnc21` [Example 161, (S)-5-(3-cyanobenzyl)-N-(5-methyl-4-oxo-2,3,4,5-tetrahydropyrido[3,2-b][1,4]oxazepin-3-yl)-4H-1,2,4-triazole-3-carboxamide], the IC50 on GST-hRIPK1 (8-327) is 0.1 to 1000 nM. In addition, the “Human hepatocyte CLhep Avg” value in data set [1] worked out at 0 mL/min/kg.

Regarding `CN1C(=O)[C@@H](NC(=O)c2nnc([C@@H]3CCc4ccccc43)[nH]2)COc2cccnc21` [Example 54A, 5-((R)-2,3-dihydro-1H-inden-1-yl)-N—((S)-5-methyl-4-oxo-2,3,4,5-tetrahydropyrido[3,2-b][1,4]oxazepin-3-yl)-4H-1,2,4-triazole-3-carboxamide], the IC50 on GST-hRIPK1 (8-327) fell in the range of 0.1 to 1000 nM; in data set [2] (Homo sapiens, Jurkat), 0.1 to 1000 nM.

Consider `CN1C(=O)[C@@H](NC(=O)c2nnc(Cc3ccccc3)o2)C2(CC2)Oc2cccnc21` [Example 160A, (S)-5-benzyl-N-(5′-methyl-4′-oxo-4′,5′-dihydro-3′H-spiro[cyclopropane-1,2′-pyrido[3,2-b][1,4]oxazepin]-3′-yl)-1,3,4-oxadiazole-2-carboxamide], for which the IC50 at GST-hRIPK1 (8-327) lay within 0.1 to 1000 nM; in data set [2] (Homo sapiens, Jurkat), 0.1 to 1000 nM.

For the compound `[2H]C([2H])([2H])N1C(=O)[C@@H](NC(=O)c2nn(Cc3ccccc3)cc2F)[C@H]2C[C@H]2c2cc(C#N)ccc21` [Example 206, 1-benzyl-N-((1aS,2S,8bR)-7-cyano-4-trideuteriomethyl-3-oxo-1,1a,2,3,4,8b-hexahydrobenzo[b]cyclopropa[d]azepin-2-yl)-4-fluoro-1H-pyrazole-3-carboxamide], the IC50 at GST-hRIPK1 (8-327) lay in the range of 0.1 to 1000 nM; in data set [2] (Homo sapiens, Jurkat), 0.1 to 1000 nM.

For the compound `O=C(NC1COc2cccnc2-n2ccnc21)c1nn(Cc2ccccc2)cc1F` (stereo in doubt) [Example 154B, (S)-1-benzyl-N-(6,7-dihydroimidazo[1,2-d]pyrido[3,2-b][1,4]oxazepin-7-yl)-4-fluoro-1H-pyrazole-3-carboxamide], the IC50 at GST-hRIPK1 (8-327) lay in the range of 0.1 to 1000 nM; in data set [2] (Homo sapiens, Jurkat) it was 0.1 to 1000 nM.

In the case of `CN1C(=O)[C@@H](NC(=O)c2nc(C#N)c(Cc3ccccc3)s2)COc2cccnc21` [Example 151, (S)-5-benzyl-4-cyano-N-(5-methyl-4-oxo-2,3,4,5-tetrahydropyrido[3,2-b][1,4]oxazepin-3-yl)thiazole-2-carboxamide], the IC50 on GST-hRIPK1 (8-327) fell in the range of 0.1 to 1000 nM; in data set [2] (Homo sapiens, Jurkat), 0.1 to 1000 nM.

For `CN1C(=O)[C@@H](NC(=O)c2nn(Cc3ccccc3)cc2F)CCc2nn(C)cc21` [Example 109A, (S)-1-benzyl-N-(2,4-dimethyl-5-oxo-2,4,5,6,7,8-hexahydropyrazolo[4,3-b]azepin-6-yl)-4-fluoro-1H-pyrazole-3-carboxamide], the IC50 at GST-hRIPK1 (8-327) was in the range of 0.1 to 1000 nM; in data set [2] (Homo sapiens, Jurkat), 0.1 to 1000 nM.

With `C[C@H]1Oc2cccnc2N(C)C(=O)[C@H]1NC(=O)c1ncn(Cc2ccccc2)n1` [Example 136, 1-Benzyl-N-((2R,3S)-2,5-dimethyl-4-oxo-2,3,4,5-tetrahydropyrido[3,2-b][1,4]oxazepin-3-yl)-1H-1,2,4-triazole-3-carboxamide], the IC50 at GST-hRIPK1 (8-327) was 0.1 to 1000 nM; in data set [2] (Homo sapiens, Jurkat), 0.1 to 1000 nM.

Take `CN1C(=O)[C@@H](NC(=O)c2nnc(Cc3ccccc3)[nH]2)CC2(CC2)c2ccccc21` [Example 44, (S)-5-benzyl-N-(1-methyl-2-oxo-1,2,3,4-tetrahydrospiro[benzo[b]azepine-5,1′-cyclopropan]-3-yl)-4H-1,2,4-triazole-3-carboxamide]: the IC50 on GST-hRIPK1 (8-327) fell in the range of 0.1 to 1000 nM; in data set [2] (Homo sapiens, Jurkat) it was 0.1 to 1000 nM.

In the case of `CN1C(=O)[C@@H](NC(=O)c2nnc(Cc3ccccc3)[nH]2)COc2c(Cl)cccc21` [Example 32, (S)-5-benzyl-N-(9-chloro-5-methyl-4-oxo-2,3,4,5-tetrahydrobenzo[b][1,4]oxazepin-3-yl)-4H-1,2,4-triazole-3-carboxamide], the IC50 at GST-hRIPK1 (8-327) was 0.1 to 1000 nM; in data set [2] (Homo sapiens, Jurkat), 0.1 to 1000 nM.

Take “(S)-1-(2-cyanobenzyl)-4-fluoro-N-(5-methyl-4-oxo-2,3,4,5-tetrahydropyrido[3,2-b][1,4]oxazepin-3-yl)-1H-pyrazole-3-carboxamide [Example 153]”: the IC50 (at GST-hRIPK1 (8-327); in data set [2]) was 0.1 to 1000 nM each time.

`CN1C(=O)[C@@H](NC(=O)c2nnc(Cc3ccccc3)s2)[C@H]2C[C@H]2c2cccnc21` [Example 120A, 5-benzyl-N-((1aS,2S,8bR)-4-methyl-3-oxo-1,1a,2,3,4,8b-hexahydrocyclopropa[d]pyrido[2,3-b]azepin-2-yl)-1,3,4-thiadiazole-2-carboxamide]: the IC50 on GST-hRIPK1 (8-327) fell in the range of 0.1 to 1000 nM; in data set [2] (Homo sapiens, Jurkat), 0.1 to 1000 nM.

For `CN1C(=O)[C@@H](NC(=O)c2nnc(Cc3ccccc3)[nH]2)CCc2c1cnn2C` [Example 101B, (S)-5-benzyl-N-(1,4-dimethyl-5-oxo-1,4,5,6,7,8-hexahydropyrazolo[4,3-b]azepin-6-yl)-4H-1,2,4-triazole-3-carboxamide], the IC50 on GST-hRIPK1 (8-327) lay in the range of 0.1 to 1000 nM; in data set [2] (Homo sapiens, Jurkat) it was 0.1 to 1000 nM.

Regarding `O=C(N[C@H]1CC2(CC2)c2cc(F)cc(F)c2NC1=O)c1nnc(Cc2ccccc2)[nH]1` [Example 103B, (S)-5-benzyl-N-(7,9-difluoro-2-oxo-1,2,3,4-tetrahydrospiro[benzo[b]azepine-5,1′-cyclopropan]-3-yl)-4H-1,2,4-triazole-3-carboxamide], the IC50 at GST-hRIPK1 (8-327) was 0.1 to 1000 nM; in data set [2] (Homo sapiens, Jurkat), 0.1 to 1000 nM.

`CN1C(=O)[C@@H](NC(=O)c2nn(Cc3ccccc3F)cc2F)CCc2nccnc21` [Example 178A, (S)-4-fluoro-1-(2-fluorobenzyl)-N-(5-methyl-6-oxo-6,7,8,9-tetrahydro-5H-pyrazino[2,3-b]azepin-7-yl)-1H-pyrazole-3-carboxamide]: the IC50 on GST-hRIPK1 (8-327) was in the range of 0.1 to 1000 nM; in data set [2] (Homo sapiens, Jurkat) it was 0.1 to 1000 nM.

As for `CN1C(=O)[C@@H](NC(=O)c2nn(Cc3ccccc3F)cc2F)[C@H]2C[C@H]2c2nccnc21` [Example 179A, 4-fluoro-1-(2-fluorobenzyl)-N-((7S,7aS,8aR)-5-methyl-6-oxo-5,6,7,7a,8,8a-hexahydrocyclopropa[d]pyrazino[2,3-b]azepin-7-yl)-1H-pyrazole-3-carboxamide], the IC50 lay in the range of 0.1 to 1000 nM at GST-hRIPK1 (8-327) and 0.1 to 1000 nM in data set [2] (Homo sapiens, Jurkat).

Turning to `CN1C(=O)[C@@H](NC(=O)c2nnc(Cc3ccccc3)o2)[C@H]2C[C@H]2c2cccnc21` [Example 157B, 5-benzyl-N-((1aS,2S,8bR)-4-methyl-3-oxo-1,1a,2,3,4,8b-hexahydrocyclopropa[d]pyrido[2,3-b]azepin-2-yl)-1,3,4-oxadiazole-2-carboxamide], the IC50 at GST-hRIPK1 (8-327) lay within 0.1 to 1000 nM; in data set [2] (Homo sapiens, Jurkat), 0.1 to 1000 nM.

With `C[C@H]1Oc2cccnc2N(C)C(=O)[C@H]1NC(=O)c1cn(Cc2ccccc2)cn1` [Example 140, 1-Benzyl-N-((2R,3S)-2,5-dimethyl-4-oxo-2,3,4,5-tetrahydropyrido[3,2-b][1,4]oxazepin-3-yl)-1H-imidazole-4-carboxamide], the IC50 at GST-hRIPK1 (8-327) lay in the range of 0.1 to 1000 nM; in data set [2] (Homo sapiens, Jurkat), 0.1 to 1000 nM.

Consider `CN1C(=O)[C@@H](NC(=O)c2nn(Cc3ccc(F)cc3)cc2F)COc2cccnc21` [Example 115, (S)-4-fluoro-1-(4-fluorobenzyl)-N-(5-methyl-4-oxo-2,3,4,5-tetrahydropyrido[3,2-b][1,4]oxazepin-3-yl)-1H-pyrazole-3-carboxamide], for which the IC50 was 0.1 to 1000 nM on GST-hRIPK1 (8-327) and 0.1 to 1000 nM in data set [2] (Homo sapiens, Jurkat).

For the compound `C[C@H]1Oc2cccnc2N(C)C(=O)[C@H]1NC(=O)c1ncc(Cc2ccccc2)o1` [Example 192, 5-benzyl-N-((2R,3S)-2,5-dimethyl-4-oxo-2,3,4,5-tetrahydropyrido[3,2-b][1,4]oxazepin-3-yl)oxazole-2-carboxamide], the IC50 on GST-hRIPK1 (8-327) lay in the range of 0.1 to 1000 nM; in data set [2] (Homo sapiens, Jurkat), 0.1 to 1000 nM.

As a reminder, the IC50 is the concentration at which inhibition is half-maximal.
